Test results reported in patent US20050197371A1, “Urea derivatives as PDGFR modulators” (Ambit Biosciences Corporation, priority 2003, published 2005).
pKd: −log10 of the molar value.

biological target: T1, PDGFRB(DKIN) (PDGFR-β) (Homo sapiens, UniProt P09619); test: Phage-display competitive binding assay, PDGFRB(DKIN); details: T7 phage displaying human PDGFR-β, DKIN construct; read-out: Binding Assay: PDGFRB(DKIN)
T1 construct: PDGFRB(DKIN)
Description: The term “ND” represents non-determined values.
Briefly, T7 phage displaying human PDGFR-β were incubated with an affinity matrix coated with known PDGFR-β inhibitor in the presence of various concentrations of the soluble competitor molecules.

| SMILES | pKd |
| --- | --- |
| CC(C)(C)c1cnc(CSc2cnc(NC(=O)Nc3ccon3)s2)o1 | 5.00 to 6.00 |
| CC(C)(C)c1cc(NC(=O)Nc2ccc(Cl)cc2Cl)no1 [Compound A7] | 5.00 to 6.00 |
| CC(C)(C)c1cc(NC(=O)Nc2ccc3cc4ccccc4cc3c2)no1 [Compound A18] | 5.00 to 6.00 |
| CC(C)(C)c1cc(NC(=O)Nc2ccc(Br)cc2C(F)(F)F)on1 [Compound A26] | 5.00 to 6.00 |
| COc1ccc(NC(=O)Nc2cc(C(C)(C)C)on2)cc1 [Compound A29] | 6.00 to 7.00 |
| CC(C)(C)c1cc(NC(=O)Nc2ccc(OCCN3CCOCC3)c3ccccc23)no1 [Compound A36] | 5.00 to 6.00 |
| CSc1ccc(NC(=O)Nc2cc(C(C)(C)C)on2)cc1 [Compound A37] | 6.00 to 7.00 |
| CSc1ccc(NC(=O)Nc2cc(C(C)(C)C)no2)cc1 [Compound A39] | 6.00 to 7.00 |
| C[S+]([O-])c1ccc(NC(=O)Nc2cc(C(C)(C)C)on2)cc1 (stereo not drawn) [Compound A46] | 6.00 to 7.00 |
| COc1ccc(NC(=O)Nc2cc(C(C)(C)C)on2)cc1OC [Compound A55] | 5.00 to 6.00 |
| CC(C)(C)c1cc(NC(=O)Nc2ccc3c(c2)OCO3)no1 [Compound A56] | 5.00 to 6.00 |
| COc1cccc(CNC(=O)Nc2cc(C(C)(C)C)on2)c1 [Compound B3] | 6.00 to 7.00 |
| CC(C)(C)c1cc(NC(=O)Nc2ccc(C(=O)O)cc2)no1 [Compound C2] | < 5.00 |
| Cc1ccc(-n2nc(C(C)(C)C)cc2NC(=O)Nc2ccc(C(C)C)cc2)cc1 [Compound D1, 1-(3-tert-butyl-1-p-tolyl-1H-pyrazol-5-yl)-3-(4-isopropylphenyl)urea] | < 5.00 |
| O=C(Nc1ccc(Cl)cc1)Nc1cc(C2CC2)nn1-c1ccccc1 [Compound D10] | 5.00 to 6.00 |
| CC(C)(C)c1cc(N2CCCN(c3ccc(OCc4ccccc4)cc3)C2=O)on1 [Compound E2] | 6.00 to 7.00 |
| CC(C)(C)c1cc(N2CCCN(c3ccc(OCc4ccccc4)cc3)C2=O)no1 [Compound E3] | < 5.00 |
| CN1CN(c2ccc(OCc3ccccc3)cc2)C(=O)N(c2cc(C(C)(C)C)on2)C1 [Compound E4] | 6.00 to 7.00 |
| COc1ccc(N2CCCN(c3cc(C(C)(C)C)no3)C2=O)cc1 [Compound E5] | 6.00 to 7.00 |

More lines, now with the values ahead:

| pKd | SMILES |
| --- | --- |
| 6.00 to 7.00 | CC(C)(C)c1cc(NC(=O)Nc2ccc(C(=O)/C=C/c3ccncc3)cc2)no1 |
| > 7.00 | O=C(c1cc2ccccc2[nH]1)c1cc2cc(O)ccc2[nH]1 |
| > 7.00 | CC(C)(C)c1cc(NC(=O)Nc2ccc(CCc3ccc(N)cc3)cc2)no1 [Compound A3] |
| 6.00 to 7.00 | CC(C)c1ccc(NC(=O)Nc2cc(C(C)(C)C)no2)cc1 [Compound A11] |
| 6.00 to 7.00 | CC(C)(C)c1cc(NC(=O)Nc2ccc(OC(F)F)cc2)no1 [Compound A12] |
| 6.00 to 7.00 | CC(C)(C)c1cc(NC(=O)Nc2ccc(OC(F)(F)F)cc2)on1 [Compound A13] |
| > 7.00 | CC(C)(C)c1cc(NC(=O)Nc2ccc(CCc3ccccc3)cc2)no1 [Compound A15] |
| 6.00 to 7.00 | CC(C)(C)c1ccc(NC(=O)Nc2cc(C(C)(C)C)no2)cc1 [Compound A16] |
| 6.00 to 7.00 | CC(=O)c1ccc(NC(=O)Nc2cc(C(C)(C)C)on2)cc1 [Compound A20] |
| 6.00 to 7.00 | CC(C)(C)c1cc(NC(=O)Nc2ccc([N+](=O)[O-])cc2)no1 [Compound A21] |
| 6.00 to 7.00 | CC(C)(C)c1cc(NC(=O)Nc2ccc(Oc3ccccc3)cc2)no1 [Compound A24] |
| 6.00 to 7.00 | CC(C)c1ccc(NC(=O)Nc2cc(C(C)(C)C)on2)cc1 [Compound A25] |
| 6.00 to 7.00 | CC(C)(C)c1cc(NC(=O)Nc2ccc(Cl)cc2)no1 [Compound A27] |
| > 7.00 | COc1ccc(NC(=O)Nc2cc(C(C)(C)C)no2)cc1 [Compound A30] |
| > 7.00 | CC(C)(C)c1cc(NC(=O)Nc2ccc(Cl)cc2)on1 [Compound A32] |
| > 7.00 | Cc1ccc(NC(=O)Nc2cc(C(C)(C)C)on2)cc1 [Compound A33] |
| > 7.00 | CC(C)(C)c1cc(NC(=O)Nc2ccc(N3C(=O)c4ccccc4C3=O)cc2)no1 [Compound A57] |
